Results on twelve molecules are retold here after PubChem BioAssay (NCI).

SMILES strings stand for the structures.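 48-hour exposure; five concentrations; linearly interpolated endpoints. Here, GI50 denotes the concentration required for 50% inhibition of growth. Definition used: TGI = concentration required for complete inhibition of growth.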 Bounds are passed on as bounds.

Some test systems named below: OVCAR-5 ovarian; SNB-19 CNS; HOP-62 NSCLC; SN12C renal; UACC-257 melanoma; MALME-3M melanoma; T-47D breast; SR leukemia; HT29 colon; RPMI-8226 leukemia.
Assay in all cases: NCI-60 cell line screen, 48 h

For the molecule `Nc1ccc(-n2c(=O)oc3ccc(Cl)cc3c2=O)c(Cl)c1`, the GI50 is 0.467 µM in the assay on OVCAR-5 ovarian; 0.122 µM in the assay with SNB-19 CNS; 0.202 µM with HOP-62 NSCLC; 0.0971 µM in the assay on SN12C renal; 0.0741 µM in the assay on UACC-257 melanoma; 0.0838 µM with MALME-3M melanoma. Further, the GI50 in the assay on T-47D breast is 0.0679 µM; with SR leukemia, 0.0987 µM; in the assay on HT29 colon it was 1.17 µM; in the assay with RPMI-8226 leukemia, 0.0558 µM. Also, the TGI was more than 100 µM in the assay on OVCAR-5 ovarian; more than 100 µM in the assay with SNB-19 CNS; 1.59 µM with HOP-62 NSCLC; 1.07 µM in the assay on SN12C renal; 0.433 µM with UACC-257 melanoma; 0.362 µM in the assay with MALME-3M melanoma. Besides, the TGI is 0.263 µM with T-47D breast, more than 35.3 µM in the assay with HT29 colon and 0.256 µM in the assay on RPMI-8226 leukemia.

In the case of `CCOC(=O)C(C)c1nc2cc(N3CCN(C)CC3)c(F)cc2[nH]c1=O` (stereo not given), the TGI in the assay on OVCAR-5 ovarian, in the assay on SNB-19 CNS, with HOP-62 NSCLC, in the assay on SN12C renal, in the assay with UACC-257 melanoma and in the assay on MALME-3M melanoma was more than 100 µM throughout. The TGI with T-47D breast, in the assay on SR leukemia, in the assay with HT29 colon and in the assay with RPMI-8226 leukemia was more than 100 µM each time.

Consider `O=C1C[C@H](c2ccccc2)C2(C(=O)c3ccccc3C2=O)[C@H](c2ccccc2)C1`, for which the TGI is more than 100 µM in the assay with OVCAR-5 ovarian; more than 100 µM with SNB-19 CNS; 96 µM with HOP-62 NSCLC; more than 100 µM with SN12C renal; more than 100 µM with MALME-3M melanoma; more than 100 µM in the assay on T-47D breast. Also, the TGI in the assay on SR leukemia, with HT29 colon and with RPMI-8226 leukemia was more than 100 µM in each case.

As for `Nc1c(S(=O)(=O)O)cc(Nc2cccc(S(=O)(=O)/C=C/S(=O)(=O)O)c2)c2c1C(=O)c1ccccc1C2=O`, the TGI in the assay on OVCAR-5 ovarian, with SNB-19 CNS, with HOP-62 NSCLC, in the assay with SN12C renal, in the assay on UACC-257 melanoma and with MALME-3M melanoma was more than 100 µM each time. In addition, the TGI in the assay on T-47D breast, with SR leukemia, in the assay with HT29 colon and with RPMI-8226 leukemia was more than 100 µM each time.

Regarding `CCOc1cc(C2SCC(=O)N2c2nc3cc4sc(N5C(=O)CSC5c5ccc(O)c(OCC)c5)nc4cc3s2)ccc1O` (stereo not given), the TGI in the assay with OVCAR-5 ovarian is more than 100 µM; with SNB-19 CNS it was more than 100 µM; in the assay on HOP-62 NSCLC, more than 100 µM; in the assay on SN12C renal, more than 100 µM; in the assay on UACC-257 melanoma it was more than 58.5 µM; with MALME-3M melanoma, more than 100 µM. The TGI in the assay on T-47D breast, in the assay with SR leukemia, in the assay on HT29 colon and in the assay with RPMI-8226 leukemia was more than 100 µM throughout.

For the molecule `O=C1C(N=Nc2ccc(-c3nc4ccccc4[nH]3)cc2)NC(=S)N1c1ccccc1` (stereo not given), the TGI in the assay with OVCAR-5 ovarian, in the assay on SNB-19 CNS, with HOP-62 NSCLC, in the assay with SN12C renal, in the assay with UACC-257 melanoma and in the assay on MALME-3M melanoma was more than 100 µM in each case. In addition, the TGI with T-47D breast was 62.8 µM; in the assay with SR leukemia, 15.3 µM; in the assay on HT29 colon it was more than 100 µM; with RPMI-8226 leukemia it was 60.2 µM.

For `CC(C)(C)c1cc(C2COC(=O)COCC(=O)OCCOCCOCCO2)cc(C(C)(C)C)c1O` (stereo not given), the TGI in the assay on OVCAR-5 ovarian is more than 100 µM; with SNB-19 CNS, more than 100 µM; with HOP-62 NSCLC, more than 100 µM; in the assay on SN12C renal, 20.8 µM; with UACC-257 melanoma, more than 100 µM; in the assay on MALME-3M melanoma it was more than 100 µM. For the same molecule, the TGI with T-47D breast, in the assay with SR leukemia, in the assay on HT29 colon and in the assay on RPMI-8226 leukemia was more than 100 µM each time.

Take `O=C(C#Cc1cn(C2CC(O)C(CO)O2)c(=O)[nH]c1=O)c1ccccc1` (stereo not given): the TGI was more than 100 µM with SNB-19 CNS; more than 100 µM in the assay with HOP-62 NSCLC; more than 100 µM in the assay with SN12C renal; more than 100 µM in the assay with UACC-257 melanoma; 24.8 µM with MALME-3M melanoma; 36.7 µM with T-47D breast. Further, the TGI with SR leukemia, with HT29 colon and in the assay with RPMI-8226 leukemia was more than 100 µM each time.

With `CN(c1ccccc1Cl)S(=O)(=O)c1ccccc1[N+](=O)[O-]`, the TGI in the assay on OVCAR-5 ovarian, in the assay on SNB-19 CNS, in the assay on HOP-62 NSCLC, with SN12C renal, with UACC-257 melanoma and in the assay on MALME-3M melanoma was more than 100 µM each time. The TGI with T-47D breast, with SR leukemia, in the assay with HT29 colon and with RPMI-8226 leukemia was more than 100 µM throughout.

Consider `c1ccc(C2=C(c3ccccc3)P(c3ccccc3)C2)cc1` (stereo not given), for which the TGI with OVCAR-5 ovarian, with HOP-62 NSCLC, in the assay with SN12C renal, in the assay on UACC-257 melanoma, in the assay with MALME-3M melanoma and in the assay with T-47D breast was more than 100 µM throughout. In addition, the TGI in the assay on SR leukemia and in the assay on HT29 colon was more than 100 µM each time.

Regarding `CCOC(=O)N(C)C1(c2ccccc2)CCN(CCCC(=O)c2ccc(F)cc2)CC1`, the TGI with OVCAR-5 ovarian was more than 100 µM; in the assay with SNB-19 CNS, 0.835 µM; in the assay with HOP-62 NSCLC it was more than 100 µM; in the assay on SN12C renal, more than 100 µM; in the assay with UACC-257 melanoma, 38.2 µM; in the assay with MALME-3M melanoma, 30 µM. Also, the TGI is more than 100 µM with T-47D breast, 45.8 µM in the assay on SR leukemia, 38.1 µM in the assay with HT29 colon and 63.8 µM in the assay with RPMI-8226 leukemia.

In the case of `O=C(c1ccccc1)N1C(=S)N(c2ccc([N+](=O)[O-])cc2)C(=Nc2ccccc2)C1=Nc1ccccc1`, the TGI in the assay with OVCAR-5 ovarian, in the assay on SNB-19 CNS, in the assay on HOP-62 NSCLC, with SN12C renal, in the assay with UACC-257 melanoma and in the assay with MALME-3M melanoma was more than 100 µM in each case. Further, the TGI in the assay on T-47D breast, in the assay with SR leukemia, in the assay on HT29 colon and with RPMI-8226 leukemia was more than 100 µM in each case.
